The source of these data is patent US20110124723A1, “Compounds for Preventing and Treating Plasmodium Infections” (UNIVERSITE PIERRE ET MARIE CURIE (PARIS 6), priority 2007, published 2011).

Each structure is given as a SMILES string. Structures can show the parent of a compound that is named as a salt.

Experiment [1] has as its system P. yoelii sporozoites (265 BY strain). The experiment is described as follows: Challenge of mice with P. yoelii sporozoites, parasitemia in blood smears. It counts as in vivo. As to conditions: Swiss mice, 5,000 sporozoites IV; for reduction of parasitemia with respect to controls: after 12 days. As to the method:
All animal were kept and used in accordance with institutional guidelines and European regulations. Female 6-week-old Swiss mice (René Janvier, Le Genest-Saint-Isle, France) weighing 24-31 g were randomly allotted to all groups.
The drugs tested were administered intra-peritoneally (IP). Monensin (MN) (Monensin A sodium salt, ref. M5273, Sigma) was diluted in PBS-methanol 2% and Nigericin (NG) (Nigericin sodium salt, ref. N7143, Sigma), another polyether ionophore antibiotic, in PBS-DMSO 2%.
The drugs were administrated on days −1, 0, +1, +2 (+40 h), and the mice challenged on day 0 by intravenous injection of 5,000 P. yoelii sporozoites (265 BY strain).
Group 1 received 25 mg/kg/day of MN and group 2 received PBS-methanol 2%. These groups received the drug and the solvent from day −1. Group 3 received 25 mg/kg/day of MN and group 4 received PBS-methanol 2% from day 0 post-infection. Group 5 received 35 mg/kg/day of NG and group 6 received PBS-DMSO 2% from day −1. Group 7 and 8 received 35 mg/kg/day of NG and PBS-DMSO 2% respectively from day 0 post-infection.
All groups were challenged with 5,000 sporozoites at day 0. Parasites were enumerated by blinded microscopic examination of Giemsa-stained tail-blood smears collected at day 3 until day 9, day 12 and day 15 post-infection. A mouse was considered negative when no parasites could be observed in 20,000 red blood cells (50 fields under a 50× light microscope objective) on any day during the period of observation.

Experiment [2] concerns P. yoelii sporozoites. The experiment is described as follows: Invasion assay, second experiment: infecting hepatocytes with sporozoites in the presence of MN, EEF count. It counts as cell-based. The note with it: all concentrations (50 pM, 1 μM, 10 μM) present for 3 h during infection, then 45 h culture. The procedure:
The second experiment consisted in infecting hepatocytes with sporozoites in the presence of MN at 50 pM, 1 μM, or 10 μM. After 3 h of incubation, MN was eliminated and the cultures were maintained 45 h at 37° C. in 5% CO2.
The cultures were stained and the quantity of exo-erythrocytic forms (EEF) was determined microscopically.

The subject of a further experiment is P. yoelii blood stage. The experiment is described as follows: Blood stage infection of mice with P. yoelii-infected red blood cells. It counts as in vivo. The note with it: 25 mg/kg at day-3, day-2, day-1 before infection. The procedure:
Two groups of mice were treated at day-3, day-2 and day-1 before infection with MN (25 mg/kg) or solvent (PBS-Methanol-2%). At day 0 the mice were inoculated IP with 4×10^5 P. yoelii-infected red blood cells. From day 3 post-infection, an enumeration of parasites in blood smears was conducted until day 10 post-infection.

Experiment [3] deals with P. yoelii oocysts in Anopheles stephensi. In words: Transmission to mosquito: oocysts in Anopheles stephensi midguts fed on treated mice. It counts as in vivo. The note with it: Anopheles stephensi fed 2 hours on MN treated mice; 30 midguts dissected 8 days later. As to the method: The mice of the MN treated group and the control group of Example 3 were anesthetized and placed for 2 hours over a cage with 100 female laboratory-bred Anopheles stephensi. Oocysts were enumerated in 30 mosquito midguts dissected 8 days later.

Experiment [4] concerns pre-erythrocytic development stage of P. yoelii. The experiment is described as follows: Real-time PCR quantification of the liver stage parasite burden. It counts as in vivo. As to conditions: mice, 25 mg/kg IP on days 0 and +1; 2.5×10^5 sporozoites IV; liver 40 h post-infection. As to the method:
MN was administered IP on days 0 and day +1. Group 1 received 25 mg/kg of MN, whereas the control groups received the MN solvent (PBS-Methanol 2%). Mice were then challenged on day 0 by intra-venous injection with 2.5×10^5 P. yoelii sporozoites and sacrificed 40 h post-infection.
A piece of liver (0.2 g) was harvested and total RNA extracted using the Micro to Midi Kit (Invitrogen, France) according to the manufacturer's instructions and treated with Dnase Turbo DNA free (Ambion, France). Five micrograms of total RNA was reverse transcribed by Superscript II (Invitrogen) and an equivalent of 100 ng RNA was used for each TaqMan® PCR reactions on a MX4000 multiplex quantitative PCR system (Stratagene, France).
Mouse β-actin primers (forward […] (SEQ ID NO: 4), reverse […] (SEQ ID NO: 5); Invitrogen) and probe (HEX-[…]-BHQ2 (SEQ ID NO: 6); MWG biotech) were used for normalisation.
P. yoelii 18S rRNA and mouse β-actin PCR fragments were cloned into plasmids and used in a 10-fold dilution series to determine a standard curve.
Absolute transcript copy number for each gene was calculated based on the external standard curve. Quantitative parasite burden was expressed as the ratio between absolute copy numbers of P. yoelii 18S ribosomal cDNA and mouse β-actin cDNA to account for experimental differences. TaqMan® test sample and plasmid standards were done in quadruplet.
For orientation: Real-time PCR tracks product formation cycle by cycle.

Experiment [5] deals with P. yoelii sporozoites. The experiment is described as follows: Sporozoite migration assay (HepG2CD81 cells, FITC-dextran, flow cytometry). In kind it is cell-based. As to conditions: all concentrations (5 μM, 5 nM and 5 picomolar); 2 h at 37° C.; vs untreated sporozoites. The procedure:
P. yoelii sporozoites treated with three concentrations (5 μM, 5 nM and 5 picomolar) of MN were incubated with HepG2CD81 cells for 2 h at 37° C. in the continued presence of with 0.5 mg/ml FITC-dextran. After 2 h at 37° C., cells were washed and fixed with PBS-formaldehyde 1%, and FITC-positive cells were counted by flow cytometry.
On the technique in general: Flow cytometry measures light scatter and fluorescence of single cells or particles in a stream.

For experiment [6], the system named is P. yoelii sporozoites. The experiment is described as follows: Invasion assay, first experiment: pre-treatment of sporozoites, then hepatocytes, EEF count. It counts as cell-based. As to conditions: washed, 48 h with hepatocytes. As to the method: Two experiments were performed.
The first experiment consisted in pre-treatment of P. yoelii sporozoites with MN at 5 pM, 0.5 μM, or 5 μM, for 1 h at room temperature then washed and added to hepatocytes. Sporozoites controls were pre-treated with medium alone and incubated 1 h at room temperature in the same conditions. Parasites were then incubated with hepatocytes for 48 h at 37° C. in 5% CO2, stained, and examined microscopically to determine the quantity of exo-erythrocytic forms (EEF) (Basco et al., 1999; Mahmoudi et al., 2003).

Experiment [7] deals with P. yoelii sporozoites. The experiment is described as follows: Maturation assay: hepatocyte cultures infected with sporozoites, then treated. It counts as cell-based. The note with it: all concentrations (50 pM, 1 μM, 10 μM) for 45 h after 3 h infection and washing. The procedure: The experiment consisted in infecting hepatocytes cultures with P. yoelii sporozoites for 3 h, washing the cultures and then treating them with MN 50 pM, 1 μM, or 10 μM, for 45 h at 37° C.

In the case of `CC[C@@]1([C@H]2O[C@H]([C@H]3O[C@@](O)(CO)[C@H](C)C[C@@H]3C)C[C@H]2C)CC[C@H]([C@@]2(C)CC[C@]3(C[C@H](O)[C@@H](C)[C@@H]([C@H](C)[C@H](OC)[C@@H](C)C(=O)[O-])O3)O2)O1.[Na+]` [MN, Monensin A sodium salt], the “protection from erythrocytic infection (mice with no parasite in blood smears)” value in experiment [1] (25 mg/kg/day IP daily for 3 days (treated, from day 0)) is 100 % of the mice; in experiment [1] (25 mg/kg/day IP daily for 4 days (pre-treated, from day -1)) it was 100 % of the mice. Further, the “inhibition of parasite development (EEF)” value is on record as “totally inhibited parasite development” with P. yoelii sporozoites [2], 96.26% in the experiment on P. yoelii sporozoites [6] (sporozoites pre-treated 1 h with 5 pM), “complete inhibition” in the experiment on P. yoelii sporozoites [6] (sporozoites pre-treated 1 h with 0.5 μM) and “complete inhibition” in the experiment with P. yoelii sporozoites [6] (sporozoites pre-treated 1 h with 5 μM). Moreover, the parasitemia course result in the experiment on P. yoelii blood stage (4×10^5 infected red blood cells IP, blood smears day 3-10) is “Increasing parasitemia, although delayed by comparison with the control group”. The “male gametocytes in blood” value with P. yoelii blood stage (vs untreated group) is given as “no male gametocytes were observed”. In addition, the “oocysts in mosquito midguts” value in experiment [3] is given as “No oocyst could be observed”. Besides, the “inhibition on parasite development (liver parasite burden, 18S rRNA/β-actin)” value in experiment [4] turned out to be 96.8%. In the experiment on P. yoelii sporozoites [5], the “inhibition of sporozoites migration” value is recorded as 93%. In addition, the “inhibition of parasite development” value with P. yoelii sporozoites [7] was “completely inhibited parasite development”.

As to `CO[C@@H]1C[C@@H](C[C@H]2CC[C@H](C)[C@H]([C@@H](C)C(=O)O)O2)O[C@]2(O[C@](C)([C@H]3CC[C@@](C)([C@@H]4O[C@@H]([C@H]5O[C@@](O)(CO)[C@H](C)C[C@@H]5C)C[C@@H]4C)O3)C[C@H]2C)[C@@H]1C` [NG, Nigericin sodium salt, reference compound], the entries for the “reduction of parasitemia with respect to controls” value in experiment [1] (35 mg/kg/day IP daily for 3 days (treated)) and in experiment [1] (35 mg/kg/day IP daily for 4 days (pretreated)) were 51% and 71%, respectively.
